Laboratory results published in patent US5663205A, “Pharmaceutical composition for use in glaucoma treatment” (Senju Pharmaceutical Co. Ltd., priority 1992, dated 1997).
Where a name gives a salt, the structure may show the parent alone. Read-outs that look alike come from different tables or passages of the source.

Tests used:
[1] = Test Example 7 (1): acute toxicity test in mice; conditions: mouse, in vivo, read-out: 50% lethal dose (LD50)
Protocol: (1) Acute toxicity test of amosulalol hydrochloride with mice:
Investigation was conducted on the acute toxicity of amosulalol hydrochloride in mice through oral administration or intravenous administration.
Amosulalol was given to 7-weeks aged ICR mice by oral administration by use of an oral probe or through a tail vein.

choroidal blood flow = conditions: cited from earlier work
[2] = system: Normal Intraocular Pressure; assay: Test Example 1 (1): intraocular pressure reducing activity on normal intraocular pressure, pigmented rabbits; format: in vivo, pigmented rabbits (Dutch belted rabbits); conditions: 0.5% ophthalmic solution, 30 min and 1 hour after topical application
Protocol: Intraocular Pressure Reducing Activity of Amosulalol Hydrochloride on Normal Intraocular Pressure in Pigmented Rabbits Male pigmented rabbits (Dutch belted rabbits) weighing about 2 kg, after having been confirmed to be free from ocular abnormalities; were bred in a breeding room maintained at a temperature of 24± 4° C. and at a relative humidity of 55± 15%, while they were given solid food (Labo RG-RO manufactured by Nihon Nohsan Kogyo K.K.) at a daily rate of 100 g per rabbit and allowed free access to tap water as drinking water. As a test drug, amosulalol hydrochloride was processed into 0.05% (hereinafter, the term "%" is to be understood to designate "w/v %") and 1.0% aqueous solutions which were used in the test, and 0.5% timolol maleate ophthalmic solution [Timoptol (registered trademark): Ban-yu Pharmaceutical Co.] and physiological saline were used as a positive control drug and a control substance, respectively. (1) Measurement of intraocular pressure: Thirty two (32) rabbits were divided into four groups each consisting of 8 rabbits, and 50 μl of test drugs as well as the control drug and physiological saline were applied topically to one eye each of the individual rabbits, with the other being left untreated. Before instillation and 0.5, 1, 2, 3, 4, 6 and 8 hours after topical application,intraocular pressure for both of eyes of each rabbit was measured using a Pneumatonograph (manufactured by Alcon Co. Hereinafter referred to briefly as "PTG"). Shown in FIG. 1 are time-course changes of intraocular pressure taken with the eyes treated by instillation of each of the test drugs, control drug and physiological saline, with time (hour) after instillation taken as abscissa and intraocular pressure (mmHg as ordinate; each value in mean±S.E. (number of cases is 8). The signs "a", "b", "d" and "e" designate physiological saline, 0.05% aqueous solution of amosulalol hydrochloride, 1.0% aqueous solution of amosulalol hydrochloride, and 0.5% ophthalmic solution of timolol maleate, respectively.

[3] = system: Normal Intraocular Pressure; assay: Test Example 2 (1): intraocular pressure reducing activity on normal intraocular pressure, pigmented rabbits; format: in vivo, pigmented rabbits (Dutch belted rabbits); conditions: 0.5% ophthalmic solution, treated eyes, 30 min and 1 hour after topical application
Protocol: Intraocular Pressure Reducing Activity of Amosulalol Hydrochloride on Normal Intraocular Pressure in Pigmented Rabbits Forty (40) male pigmented rabbits (Dutch belted rabbits) weighing about 2 kg, after having been confirmed to be free from ocular abnormalities, were bred in a breeding room maintained at a temperature of 24± 4° C. and at a relative humidity of 55± 15%, while they were fed solid food (Labo RG-RO, manufactured by Nihon Nohsan Kogyo K.K.) at a daily rate of 100 g per rabbit and allowed free access to tap water as drinking water. As a test drug, amosulalol hydrochloride was processed into 0.05%, 0.5% and 1.0% aqueous solutions which were used in the test, and 0.5% timolol maleate ophthalmic solution [Timoptol (registered trademark): Ban-yu Pharmaceutical Co.] and physiological saline were used as a positive control drug and a control substance, respectively. (1) Measurement of intraocular pressure: Forty (40) rabbits were divided into five groups. each consisting of 8 heads, and 50 μl of test drug as well as the control drug and physiological saline were applied topically to one eye each of the individual rabbits, with the other being left untreated. Before instillation and 0.5, 1, 2, 3, 4, 6 and 8 hours after topical application respectively, intraocular pressure for both eyes of each rabbit was measured using PTG. Time-course changes of intraocular pressure measurements taken with the eyes treated by instillation of each of the test drugs, control drug and physiological saline, are illustrated in FIGS. 2 (for treated eyes) and 3 (for non-treated eyes), respectively, with time (hour) after instillation taken as abscissa and intraocular pressure (mmHg) as ordinate; each value in mean ± S.E. (the number in each case is 8). The signs "a", "b", "c", "d" and "e" designate physiological saline, 0.05% aqueous solution of amosulalol hydrochloride, 0.5% aqueous solution of amosulalol hydrochloride, 1.0% aqueous solution of amosulalol hydrochloride and 0.5% solution of timolol maleate, respectively.

In the case of `COc1ccccc1OCCNCC(O)c1ccc(C)c(S(N)(=O)=O)c1` (stereo not shown) [Amosulalol, 5-[1-hydroxy-2-[2-(2-methoxyphenoxy)ethylamino]ethyl]-2-methylbenzenesulfonamide], the LD50 ([1]; iv, intravenous (tail vein), female mice) is reported as 134 mg/kg, the LD50 ([1]; iv, intravenous (tail vein), male mice) is reported as 104 mg/kg and the LD50 ([1]; po, female mice) is reported as 5700 mg/kg. The LD50 ([1]; po, male mice) was 6500 mg/kg.

For `CCCC(=O)N1CCCN(c2nc(N)c3cc(OC)c(OC)cc3n2)CC1` [bunazosin hydrochloride], the choroidal blood flow (choroidal blood flow) is given as “can increase choroidal blood flow”.

In the case of `CC(C)(C)NC[C@H](O)COc1nsnc1N1CCOCC1` [timolol maleate, reference compound], the “drop in intraocular pressure” value [2] is reported as 2.4 mmHg and the “drop in intraocular pressure” value [3] is reported as 2.4 mmHg.
